Values of other authors, collected in paper PMC9260974 (BMC Pharmacology & Toxicology, 2022).

Details: in vivo, po; cited from earlier work

SMILES: C[C@H](CS)C(=O)N1CCC[C@H]1C(=O)O [captopril]
- Reduction of bioavailability by food: 35-50%
